Paper PMC11187542, “Identification of fragments targeting SMYD3 using highly sensitive kinetic and multiplexed biosensor-based screening” (RSC Medicinal Chemistry, 2024)

What was measured:
[1] = molecular target: T1, SMYD3 in complex with active site-specific tight-binding inhibitor EPZ031686 (Homo sapiens, UniProt Q9H7B4); test: GCI biosensor kinetic screening, active site blocked SMYD3 surface
T1 construct: Full length recombinant SMYD3 was produced as previously reported; made in house; host or cells: E. coli BL21(DE3), in some cases Rosetta 2
T1 sequence (Q9H7B4 1-428): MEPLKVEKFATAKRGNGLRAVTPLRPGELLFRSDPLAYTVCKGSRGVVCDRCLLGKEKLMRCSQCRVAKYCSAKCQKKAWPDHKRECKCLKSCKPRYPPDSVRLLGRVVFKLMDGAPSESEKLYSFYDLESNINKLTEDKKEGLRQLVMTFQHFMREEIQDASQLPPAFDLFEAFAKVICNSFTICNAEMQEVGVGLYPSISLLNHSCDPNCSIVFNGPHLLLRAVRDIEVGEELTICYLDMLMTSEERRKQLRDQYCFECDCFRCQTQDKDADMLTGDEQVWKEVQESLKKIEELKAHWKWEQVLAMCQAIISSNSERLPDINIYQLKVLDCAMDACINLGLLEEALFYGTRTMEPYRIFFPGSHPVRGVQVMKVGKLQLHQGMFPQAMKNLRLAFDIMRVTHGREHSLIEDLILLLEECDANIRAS
Source text: (§1) A multiplexed screening assay was set up with three different SMYD3 surfaces and a blank reference surface in flow channels 1–4 (FC1–FC4) (Fig. 2a), as described previously.[5] The apo SMYD3 surface detected fragments interacting anywhere on SMYD3, while a SMYD3 surface blocked by active site-specific tight-binding inhibitor EPZ031686 detected compounds binding elsewhere. The denatured surface served as a reference, detecting fragments binding to unfolded proteins, also potentially present to a significant degree in the other two surfaces.
(§2) The library was screened using the approach described in Fig. 1, i.e. injection of fragments at 250 μM for increasing durations of time in a single cycle, using a flow rate of 100 μL min^−1, data acquisition set to 40 Hz and with an association time of 5 s and dissociation of 20 s. Each fragment was addressed to all four channels and interactions with the native and blocked surfaces compared. The experimental conditions were chosen to ensure that the assay could reliably characterize the fast and transient interactions expected from typical fragments.
(§3) The kinetic screening of 1056 compounds was successfully completed in 72 hours. […] Hits were identified with full kinetic information using dissociation phases.
(§4) All interaction kinetic experiments were conducted with a GCI–flow-based biosensor (WAVEdelta, Creoptix AG/Malvern Panalytical) and PCH WAVEchip (Creoptix AG/Malvern Panalytical) sensor chips. The sensor chips were conditioned using injections of borate buffer (10 mM sodium tetraborate pH 8.5, 1 M NaCl). The running buffer composition, if not otherwise stated, was TBS buffer (50 mM Tris, 150 mM NaCl, 0.5 mM TCEP, 0.05% Tween 20, 1% DMSO, pH 8). SMYD3 was diluted to the desired concentration in 10 mM bis-Tris (pH 7.0) and amine coupled to the sensor surface of the PCH sensor chip. The sensor chip was functionalized at 25 °C by immobilising SMYD3 with EDC and NHS (Xantec) using an injection time of 420 s and a flow rate of 10 μL min^−1. The immobilisation levels ranged from 5000 pg mm^−2 to 18 500 pg mm^−2 surface mass to enable analysis of fragments spanning a broad range of affinities. After immobilization, the surface was deactivated with a running buffer containing 50 mM Tris for 420 s. The GCI data referencing and analysis were performed using WAVEcontrol V4.5 (Creoptix AG).
(§5) Kinetic measurements with controls and fragments were performed at 15 °C. Analysis of controls and follow up of hits was done using the multi cycle kinetic (MCK) injection of a concentration series for the same time, with a two-fold serial dilution starting at 250 μM for each compound. Solvent correction was performed ranging from 0.5–1.8% DMSO. Blank samples of the running buffer, 1× TBS (50 mM Tris, 150 mM NaCl, 0.5 mM TCEP, 0.05% Tween 20, 1% DMSO, pH 8), were injected during the measurements every fifth cycle. The experimental design illustrated in Fig. 1 was used for the screening against all four surfaces. The sensorgrams were adjusted to account for solvent correction and blank subtraction. Kinetic fitting was performed with the Direct Kinetics engine of WAVEcontrol software V4.5 (Creoptix AG) with a suitable fitting model.

SMYD3 [2] = molecular target: T2, SMYD3 (Homo sapiens, UniProt Q9H7B4); test: GCI biosensor multi cycle kinetic confirmation of hits; assay type: binding; details: two-fold serial dilution starting at 250 μM, 15 °C, global fit 1:1 model
T2 construct: Full length recombinant SMYD3 was produced as previously reported; made in house; host or cells: E. coli BL21(DE3), in some cases Rosetta 2
T2 sequence (Q9H7B4 1-428): T1 sequence (Q9H7B4 1-428)
Protocol: Selected screening hits were also re-tested by conventional multi cycle kinetic analysis in order to confirm the interactions (some compounds were no longer available). Two variants of the GCI biosensor assay were set up, using different immobilisation levels, to allow the confirmation of hits over a broad range of affinities. […] The kinetics varied for the selected hits (ESI, ^† Fig. S2). All hits were not confirmed (ESI, ^† Fig. S1b).
as §4, §5
FL06268 Superstoichiometric and
Figure 1. Examples of sensorgrams from multicycle kinetic experiments with initial fragment hits and SMYD3. A)
Fragments for which crystal structures of the complex with SMYD3 were obtained. A global fit of the sensorgrams
crystal structures were not obtained. […]

SMYD3 [3] = molecular target: T2, SMYD3; test: X-ray crystallography of SMYD3-fragment complexes (co-crystallization and soaking); design: key to XRC: success or failure of crystallization in complex with SMYD3: The success (+) or failure (−) of crystallization in complex with SMYD3; The success (+) or failure (−) of crystallization in complex with SMYD3; details: 5 mM fragment co-crystallization or soaking
Source text: To identify binding sites and binding modes, the fragment hits (Table 1) were used in both co-crystallization and soaking experiments to obtain SMYD3-fragment co-crystals for X-ray crystallographic analyses. Diffraction data of 1.6–1.9 Å maximum resolution were obtained for four fragments (Fig. 5). For data collection and refinement statistics, see ESI, ^† Table S1.
Four new sites were thus identified.
Polder (F0–Fc) maps (Fig. 5, right) were generated to establish whether the observed electron density features were more likely to represent background noise or to belong to bound fragments. These omit maps are generated upon exclusion of the ligand and surrounding solvent from the model, which aids in visualizing weak densities. […] For fragments FL01507, FL08580 and FL08619, a comparison of the maps obtained after refinement with a bound fragment with maps obtained upon their replacement with either glycerol or acetate, which were present in the crystallization or cryo-protectant solutions, respectively, was required.
8 mg mL^−1 of SMYD3 in storage buffer (TBS buffer containing 2 mM DTT) was pre-incubated for 4–8 hours with 5 mM of a respective fragment hit compound and 10% (v/v) DMSO. Subsequently, 1 μL of this solution was mixed with an equal volume of reservoir solution (100 mM Tris, 100 mM magnesium acetate, 15–17% PEG3350, pH 8.25–8.75) to create the drops for co-crystallization by hanging drop vapour diffusion performed at 20 °C. Needle-like co-crystals nucleated within 12 h of equilibration against the reservoir. In addition, crystals of SMYD3 obtained in ligand-free crystallization setups were soaked with fragment solution prior to freezing. All crystals were cryo-protected via brief immersion in reservoir solution supplemented with 10% (v/v) glycerol.
Diffraction data were collected at beamline ID23-1 of the European Synchrotron Radiation Facility (ESRF, Grenoble, France). Data were indexed, auto-processed, scaled and merged on-site using the implemented data processing routines and software. Fragment-associated electron density features were identified upon data analysis with the Pipedream system (version 1.4.0, Global Phasing Ltd, Cambridge, United Kingdom), which includes data processing with autoPROC,[14] molecular replacement with Phaser,[15] structure refinement with BUSTER version 2.10.4 (Global Phasing Ltd, Cambridge, United Kingdom), automated ligand fitting with Rhofit (Global Phasing Ltd, Cambridge, United Kingdom) and BUSTER post-refinement.[16] Refinement was done with Phenix,[17] and model building with Coot.[18] (F0–Fc) difference density maps for models, from which ligand atoms and surrounding water molecules were removed, were generated using Phenix.

SMYD3 (apo, native) = molecular target: T3, SMYD3 (apo, native) (Homo sapiens, UniProt Q9H7B4); test: GCI biosensor kinetic screening, apo SMYD3 surface; assay type: binding; details: control SAH at 25 μM, multiple injection design
T3 construct: Full length recombinant SMYD3 was produced as previously reported; made in house; host or cells: E. coli BL21(DE3), in some cases Rosetta 2
T3 sequence (Q9H7B4 1-428): T1 sequence (Q9H7B4 1-428)
Source text: as §1
After preparing the sensor surface and immobilising SMYD3, the functionality of the surface was assessed via analysis of interactions with the co-factor product S-adenosyl-homocysteine (SAH). It was used as a control in all experiments, confirming that sensor surfaces were intact. This was done using the novel multiple injection-based experimental design (Fig. 1) at 25 μM, i.e. in a weak binder mode (Fig. 2b).
as §2, §3, §4, §5

SMYD3 [4] = molecular target: T2, SMYD3; design: method as in PMID 31389685; details: previously obtained, SPR-based biosensor assay, cited from earlier work

LE (ligand efficiency) ([1]; LE = −RT ln(KD)/n, blocked SMYD3 surface)	Kd ([1]; initial kinetic screening, fragment 250 μM, 15 °C, SMYD3 blocked by EPZ031686)	kd ([1]; initial kinetic screening, fragment 250 μM, 15 °C, SMYD3 blocked by EPZ031686, 1:1 model)	kon at 250 µM ([1]; initial kinetic screening, fragment 250 μM, 15 °C, SMYD3 blocked by EPZ031686, 1:1 model, read-out: ka)	Outcome of multicycle kinetic experiment (sensorgram assessment) (SMYD3 [2])	XRC: success or failure of crystallization in complex with SMYD3 (SMYD3 [3])	Structure (SMILES)	ka (SMYD3 (apo, native))	kd (SMYD3 (apo, native))	ka (SMYD3 [4])	kd (SMYD3 [4])	Kd (SMYD3 [4]; read-out: derived KD)
0.55 (kcal^-1 mol^-1)/HA	38 µM	1.06 s⁻¹	27300 M⁻¹ s⁻¹	Far from saturation	(+)	O=C(O)C(=O)c1ccccc1 [FL08619]					
						Nc1ncnc2c1ncn2[C@@H]1O[C@H](CSCC[C@H](N)C(=O)O)[C@@H](O)[C@H]1O [SAH, S-adenosyl-homocysteine]	304000 to 3.52e+06 M⁻¹ s⁻¹	0.748 to 4.92 s⁻¹	(2.7 ± 0.1) × 10^6 M^-1 s^-1	1.6 ± 0.9 s⁻¹	0.611 ± 0.002 µM
